Here are results for 1 compound from US7371776B2, “Methods and compositions for treating cancer” (Mars, Incorporated, priority 2004, dated 2008).

Format in all cases: cell-based, human
Assay [1] relates to AIN4 cells. Briefly: Crystal violet cellular proliferation assay. The settings on record: 100 μg/mL. As to the method:
The 184A1N4 cell line (hereinafter “A1N4”) is a non-tumorigenic cell line derived from primary cultures of HMECs and immortalized with benzo(a)pyrene (provided by Dr. M. R. Stampfer, University of California, Berkley, Calif.) (Stampfer, M. R. et al., Proc. Natl. Acad. Sci. USA, 82: 2394-2398, 1985). These cells were maintained in IMEM medium with 0.5% FBS, 0.5 μg/mL of hydrocortisone (Biofluids), 5 μg/mL insulin and 10 ng/mL of EGF.
One×10^3 cells per well were seeded in 96 well dishes (Coming Costar, Cambridge, Mass.). Primary cultures of HMECs, A1N4 and 184B5 cells were evaluated at two different cell densities (seeded at 1×10^3 and 2×10^3 per well). After 24 hours of cell attachment, cells in triplicate wells were treated with pentamer at a concentration of 100 μg/mL. The cells on the same plate were treated with corresponding controls: (i) media containing DMSO, and (ii) media with no additions.
Cells were treated for 1, 2, 3, 6, 8 and 10 days, but in some cases, the samples were collected at days 2, 3, 4, 7 and 10 post-treatment. Each treatment was conducted in triplicate. […] The optical density (OD) of samples was read at 550 nm on an Ultramark Microplate Imagining System (BioRad, Philadelphia, Pa.). […] Statistical significance was determined using the t test analysis.

The subject of assay [2] is AIN4 cells. Briefly: Mitochondrial membrane potential depolarization (ApoAlert, flow cytometry). As to the method:
(§1) Mitochondrial membrane potential was determined using ApoAlert™ Mitochondrial Membrane Sensor Kit (Clonetech Inc., Palo Alto, Calif.). The MDA MB-231, MCF-7, MDA MB-468, MDA MB-436, SKBR-3, MCF-10A, MCF-10A-c-Myc and AIN4 cells were grown, in appropriate media, to 60-70% confluence in 25 cm^2 dishes. The following day, the complete media was replaced with complete media containing (i) pentamer (100 μg/mL, or in some cases with 25 μg/mL), (ii) media with DMSO, or (iii) media only. Initially, cells were grown in the presence of pentamer for 1, 2, 3, 6, 12 and 24 hrs but only 1, 2 and 6 hrs treatments were selected for subsequent studies. All floating and adherent cells were combined, and then the cells were aliquoted into flow cytometry tubes. Approximately, 1×10^6 cells per tube were analyzed, according to the manufacturer's instructions. Samples were analyzed at the Lombardi Comprehensive Cancer Center Core Flow Cytometry Shared Resource Facility.
In general terms: In flow cytometry, cells or beads pass a laser one at a time.

The test system of a further assay is MCF-10A cells. Described as above. As to the method: as §1
Another assay has as its system MCF-7 cells. The assay is described as above. The conditions noted are these: several attempts, different passages. How it is done: as §1
The subject of a further assay is MDA MB-231 cells. Described as above. How it is done:
as §1

For a further assay, the system named is MDA MB-436 cells. The assay is described as above. How it is done:
as §1

For another assay, the system named is MDA MB-468 cells. The description is as above. As to the method: as §1
The test system of the next assay is SKBR-3 cells. The description is as above. How it is done: as §1
In a further assay the test system is PARP. Kind of assay: PARP cleavage in MDA MB-231 cells. The conditions noted are these: 48 hours treatment. An excerpt:
Rabbit polyclonal poly (ADP-ribose) polymerase (PARP) (H-250) was obtained from Santa Cruz Biotechnology Inc., (Santa Cruz, Calif.). α-Tubulin antibody was obtained from Neomarkers, Fremont, Calif. All antibodies used for proteomics analysis were obtained from Cell Signaling (Beverly, Mass.), Upstate Biotechnology (Lake Placid, N.Y.), Neomarkers (Fremont, Calif.) and Santa Cruz (Santa Cruz, Calif.) (Table 2). Referring to Table 2, Abs designated as “mouse” were monoclonal Abs, and Abs designated as “rabbit” were polyclonal Abs. The ECL detection reagent was obtained from Amersham (Arlington Heights, Ill.).
To determine whether depolarization of the mitochondrial membrane, induced by pentamer leads to apoptotic cellular death in human breast cancer cells lines, MDA MB-231 and MCF-7 cells were examined for PARP cleavage products. Since PARP is one of the downstream substrates of the caspase cascade, it is an excellent marker of apoptosis [Soldani, C. et al., Apoptosis, 7: 321-328, 2002].

For a further assay, the system named is p53. Kind of assay: High resolution profiling (P-FILM) of p53 in MDA MB-231 cells. The settings on record: 100 μg/mL. As to the method: Both p53 and pRb contain multiple phosphorylation sites, and evaluating each site separately provides a more accurate indication of each protein's potential function. Therefore, a high resolution functional profiling of the proteins was performed using P-FILM technology (20/20 Gene Systems, Inc.).
The same protein samples as those used for PDVF membrane blotting were used. Ten μg of each protein sample of MDA MB-231 cells, and in some cases MDA MB-468 and MCF-7 cells, treated with 100 μg /mL of pentamer or DMSO-treated controls, were separated by PAGE on 4-20% gradient gels (BioRad). Proteins were transferred on a stack of ten membranes, according to manufacturer's instructions (20/20 Gene Systems, Inc.). The membranes were probed with antibodies recognizing total and phosphorylated p53 (p53Ser6, Ser9, Ser15, Ser20, Ser37, Ser46 and Ser392) at 1:1000 dilution as recommended by the manufacturer (Cell Signaling). The secondary antibody used in all cases was anti-rabbit polyclonal 1:2000 (Amersham). Signals were visualized on BIOMAX MR film (Kodak). The profiling of pRb was done using anti-phospho pRb (Ser780, Ser 795 and Ser 807/811) and anti-pRb polyclonal antibody (Cell Signaling) at a 1:1000 dilution. The secondary antibody used in all cases was anti-rabbit at 1:2000 dilution (Amersham). Image analysis was performed with Kodak 1D image analysis software. Background corrected intensity values were normalized for loading by using GAPDH intensities. Numerical analysis was performed in Excel.

[3] abbreviates: pentamer-treated, average of three experiments.

Molecules are shown by their SMILES.

Turning to `Oc1cc(O)c2c(c1)O[C@H](c1ccc(O)c(O)c1)[C@H](O)[C@H]2c1c(O)cc(O)c2c1O[C@H](c1ccc(O)c(O)c1)[C@H](O)[C@H]2c1c(O)cc(O)c2c1O[C@H](c1ccc(O)c(O)c1)[C@H](O)[C@H]2c1c(O)cc(O)c2c1O[C@H](c1ccc(O)c(O)c1)[C@H](O)[C@H]2c1c(O)cc(O)c2c1O[C@H](c1ccc(O)c(O)c1)[C@H](O)C2` [pentamer, pentameric procyanidin], in the assay with AIN4 cells [1], the “growth inhibited, in comparison to DMSO-treated controls” value is reported as 7.3 fold. For the same compound, the “MMP depolarization, Fold Increase over DMSO” value is 3.2 in the assay with AIN4 cells [2]; 2 in the assay on MCF-10A cells; 14.5 in the assay with MDA MB-231 cells; 5.7 in the assay on MDA MB-436 cells; 5 with MDA MB-468 cells; 2.5 in the assay with SKBR-3 cells. Further, the “MMP depolarization (%)” value in the assay with AIN4 cells [2] (setting [3]) came to 20%; with MCF-10A cells (setting [3]), 20%; with MDA MB-231 cells (setting [3]), 58%; in the assay on MDA MB-436 cells (setting [3]), 50%; in the assay with MDA MB-468 cells (setting [3]), 60%; in the assay with SKBR-3 cells (setting [3]), 25%. Also, the “depolarization of the mitochondrial membrane” value in the assay with MCF-7 cells is given as “depolarization could not be demonstrated”. Further, the “depolarization of mitochondrial membrane, time course” value in the assay on MDA MB-231 cells (100 μg/mL, 1, 2 and 6 hours) is “time-dependent depolarization”. Besides, in the assay with MDA MB-231 cells (25 and 100 μg/mL), the “depolarization of mitochondrial membrane, dose response” value is “dose-dependent response”. For the same compound, in the assay on PARP, the “main band of PARP (cleavage)” value is given as “uncleaved”. In addition, in the assay with p53, the “percentage of p53 phosphorylated at Ser392 decreased, compared to untreated controls” value worked out at 53%. Besides, in the assay on p53 (48 h), the “phosphorylation of p53 Ser15 residue” value is “slight decreases”. The “phosphorylation of p53 Ser46” value with p53 (48 h) is “slight decreases”. In addition, the entries for the “phosphorylation of p53 Ser20 residue” value in the assay on p53 (48 hrs) and with p53 (72 hrs) were “decreased” and “not affected”, respectively. The “levels of endogenous p53 expression” value in the assay with p53 (48 hrs, not significant by densitometry) is “slightly decreased”. In addition, the “phosphorylation of p53 Ser392 residue” value with p53 (both 48 and 72 hrs) was “significant dephosphorylation”.
